Data reported in the NIST ThermoML archive (doi:10.1016/j.jct.2016.03.003).

Assay: mn = molality of the nth substance listed, in mol/kg
Conditions: 101.3 kPa, Liquid, Vibrating tube method

C[C@H](O)C(=O)[O-].C[C@H](O)C(=O)[O-].C[C@H](O)C(=O)[O-].[Al+3] [aluminium L-lactate] + O
Conditions	mass density [kg/m3]
278.15 K, m1 = 0.0016	1000.31
278.15 K, m1 = 0.0033	1000.54
278.15 K, m1 = 0.0065	1000.95
278.15 K, m1 = 0.016	1002.1
278.15 K, m1 = 0.0281	1003.54
278.15 K, m1 = 0.0521	1006.26
278.15 K, m1 = 0.0995	1011.5
278.15 K, m1 = 0.1996	1022.22
278.15 K, m1 = 0.3045	1032.98
278.15 K, m1 = 0.4021	1042.51
278.15 K, m1 = 0.5059	1052.17
278.15 K, m1 = 0.5991	1060.59
278.15 K, m1 = 0.7147	1070.67
283.15 K, m1 = 0.0016	1000.07
283.15 K, m1 = 0.0033	1000.29
283.15 K, m1 = 0.0065	1000.7
283.15 K, m1 = 0.016	1001.82
283.15 K, m1 = 0.0281	1003.24
283.15 K, m1 = 0.0521	1005.92
283.15 K, m1 = 0.0995	1011.1
283.15 K, m1 = 0.1996	1021.72
283.15 K, m1 = 0.3045	1032.35
283.15 K, m1 = 0.4021	1041.79
283.15 K, m1 = 0.5059	1051.34
283.15 K, m1 = 0.5991	1059.68
283.15 K, m1 = 0.7147	1069.65
288.15 K, m1 = 0.0016	999.46
288.15 K, m1 = 0.0033	999.69
288.15 K, m1 = 0.0065	1000.09
288.15 K, m1 = 0.016	1001.21
288.15 K, m1 = 0.0281	1002.6
288.15 K, m1 = 0.0521	1005.25
288.15 K, m1 = 0.0995	1010.37
288.15 K, m1 = 0.1996	1020.89
288.15 K, m1 = 0.3045	1031.43
288.15 K, m1 = 0.4021	1040.77
288.15 K, m1 = 0.5059	1050.24
288.15 K, m1 = 0.5991	1058.5
288.15 K, m1 = 0.7147	1068.38
293.15 K, m1 = 0.0016	998.56
293.15 K, m1 = 0.0033	998.78
293.15 K, m1 = 0.0065	999.18
293.15 K, m1 = 0.016	1000.27
293.15 K, m1 = 0.0281	1001.67
293.15 K, m1 = 0.0521	1004.3
293.15 K, m1 = 0.0995	1009.39
293.15 K, m1 = 0.1996	1019.81
293.15 K, m1 = 0.3045	1030.26
293.15 K, m1 = 0.4021	1039.52
293.15 K, m1 = 0.5059	1048.92
293.15 K, m1 = 0.5991	1057.11
293.15 K, m1 = 0.7147	1066.89
298.15 K, m1 = 0.0016	997.37
298.15 K, m1 = 0.0033	997.6
298.15 K, m1 = 0.0065	997.99
298.15 K, m1 = 0.016	999.09
298.15 K, m1 = 0.0281	1000.46
298.15 K, m1 = 0.0521	1003.09
298.15 K, m1 = 0.0995	1008.13
298.15 K, m1 = 0.1996	1018.48
298.15 K, m1 = 0.3045	1028.85
298.15 K, m1 = 0.4021	1038.07
298.15 K, m1 = 0.5059	1047.37
298.15 K, m1 = 0.5991	1055.51
298.15 K, m1 = 0.7147	1065.25
303.15 K, m1 = 0.0016	996
303.15 K, m1 = 0.0033	996.22
303.15 K, m1 = 0.0065	996.61
303.15 K, m1 = 0.016	997.67
303.15 K, m1 = 0.0281	999.04
303.15 K, m1 = 0.0521	1001.64
303.15 K, m1 = 0.0995	1006.64
303.15 K, m1 = 0.1996	1016.92
303.15 K, m1 = 0.3045	1027.23
303.15 K, m1 = 0.4021	1036.37
303.15 K, m1 = 0.5059	1045.62
303.15 K, m1 = 0.5991	1053.7
303.15 K, m1 = 0.7147	1063.36
308.15 K, m1 = 0.0016	994.37
308.15 K, m1 = 0.0033	994.59
308.15 K, m1 = 0.0065	994.98
308.15 K, m1 = 0.016	996.04
308.15 K, m1 = 0.0281	997.4
308.15 K, m1 = 0.0521	999.99
308.15 K, m1 = 0.0995	1004.96
308.15 K, m1 = 0.1996	1015.17
308.15 K, m1 = 0.3045	1025.41
308.15 K, m1 = 0.4021	1034.51
308.15 K, m1 = 0.5059	1043.7
308.15 K, m1 = 0.5991	1051.73
308.15 K, m1 = 0.7147	1061.35
313.15 K, m1 = 0.0016	992.55
313.15 K, m1 = 0.0033	992.76
313.15 K, m1 = 0.0065	993.14
313.15 K, m1 = 0.016	994.21
313.15 K, m1 = 0.0281	995.56
313.15 K, m1 = 0.0521	998.12
313.15 K, m1 = 0.0995	1003.06
313.15 K, m1 = 0.1996	1013.23
313.15 K, m1 = 0.3045	1023.41
313.15 K, m1 = 0.4021	1032.44
313.15 K, m1 = 0.5059	1041.59
313.15 K, m1 = 0.5991	1049.59
313.15 K, m1 = 0.7147	1059.14
318.15 K, m1 = 0.0016	990.54
318.15 K, m1 = 0.0033	990.75
318.15 K, m1 = 0.0065	991.13
318.15 K, m1 = 0.016	992.2
318.15 K, m1 = 0.0281	993.53
318.15 K, m1 = 0.0521	996.09
318.15 K, m1 = 0.0995	1001
318.15 K, m1 = 0.1996	1011.1
318.15 K, m1 = 0.3045	1021.23
318.15 K, m1 = 0.4021	1030.23
318.15 K, m1 = 0.5059	1039.33
318.15 K, m1 = 0.5991	1047.3
318.15 K, m1 = 0.7147	1056.79
323.15 K, m1 = 0.0016	988.37
323.15 K, m1 = 0.0033	988.56
323.15 K, m1 = 0.0065	988.95
323.15 K, m1 = 0.016	990
323.15 K, m1 = 0.0281	991.34
323.15 K, m1 = 0.0521	993.87
323.15 K, m1 = 0.0995	998.76
323.15 K, m1 = 0.1996	1008.81
323.15 K, m1 = 0.3045	1018.9
323.15 K, m1 = 0.4021	1027.86
323.15 K, m1 = 0.5059	1036.92
323.15 K, m1 = 0.5991	1044.84
323.15 K, m1 = 0.7147	1054.31
328.15 K, m1 = 0.0016	986.02
328.15 K, m1 = 0.0033	986.21
328.15 K, m1 = 0.0065	986.59
328.15 K, m1 = 0.016	987.65
328.15 K, m1 = 0.0281	988.97
328.15 K, m1 = 0.0521	991.49
328.15 K, m1 = 0.0995	996.36
328.15 K, m1 = 0.1996	1006.37
328.15 K, m1 = 0.3045	1016.42
328.15 K, m1 = 0.4021	1025.32
328.15 K, m1 = 0.5059	1034.36
328.15 K, m1 = 0.5991	1042.24
328.15 K, m1 = 0.7147	1051.67
333.15 K, m1 = 0.0016	983.53
333.15 K, m1 = 0.0033	983.72
333.15 K, m1 = 0.0065	984.09
333.15 K, m1 = 0.016	985.14
333.15 K, m1 = 0.0281	986.48
333.15 K, m1 = 0.0521	988.97
333.15 K, m1 = 0.0995	993.82
333.15 K, m1 = 0.1996	1003.79
333.15 K, m1 = 0.3045	1013.8
333.15 K, m1 = 0.4021	1022.68
333.15 K, m1 = 0.5059	1031.67
333.15 K, m1 = 0.5991	1039.53
333.15 K, m1 = 0.7147	1048.93
338.15 K, m1 = 0.0016	980.88
338.15 K, m1 = 0.0033	981.06
338.15 K, m1 = 0.0065	981.45
338.15 K, m1 = 0.016	982.49
338.15 K, m1 = 0.0281	983.81
338.15 K, m1 = 0.0521	986.3
338.15 K, m1 = 0.0995	991.13
338.15 K, m1 = 0.1996	1001.06
338.15 K, m1 = 0.3045	1011.04
338.15 K, m1 = 0.4021	1019.88
338.15 K, m1 = 0.5059	1028.85
338.15 K, m1 = 0.5991	1036.68
338.15 K, m1 = 0.7147	1046.04
343.15 K, m1 = 0.0016	978.11
343.15 K, m1 = 0.0033	978.27
343.15 K, m1 = 0.0065	978.67
343.15 K, m1 = 0.016	979.71
343.15 K, m1 = 0.0281	981.02
343.15 K, m1 = 0.0521	983.51
343.15 K, m1 = 0.0995	988.33
343.15 K, m1 = 0.1996	998.2
343.15 K, m1 = 0.3045	1008.14
343.15 K, m1 = 0.4021	1017.05
343.15 K, m1 = 0.5059	1025.9
343.15 K, m1 = 0.5991	1033.73
343.15 K, m1 = 0.7147	1043.05
